Measurements taken from US12692471B2, “High aspect ratio devices and methods for vitrification of biological samples by rapid cooling” (The General Hospital Corporation, priority 2020, dated 2026).

Experiments:
[1] = system: IFN-γ knockout mice; assay: In vivo infectivity of cryopreserved oocysts
Protocol: C. parvum oocysts at 2, 6 and 12 weeks of age were bleached (20%) and cryopreserved in the vitrification cassettes as described above using a two-step DMSO addition protocol with final concentration of 0.5 M trehalose/50% DMSO. Infectivity of cryopreserved oocysts was evaluated in 8-week-old female IFN-γ knockout mice bred under pathogen-free conditions (Jackson Laboratory, Bar Harbor, ME, USA). All mice experiments were conducted in an AAALAC accredited institution in compliance with the study protocol No. G2017-107 approved by the Tufts University Institutional Animal Care and Use Committee in accordance with the Guide for the Care and Use of Laboratory Animals (National Research Council). Mice were randomly assigned into groups of three by a blinded animal caretaker, however the investigators were not blinded during this experiment.
The animal care, inoculation and monitoring procedures were performed as described elsewhere (Jaskiewicz et al., Cryopreservation of infectious Cryptosporidium parvum oocysts. Nat. Commun. 9, 2883 (2018)), with modifications. Mice were immunosuppressed throughout the course of the experiment by administration of dexamethasone in drinking water at concentration 10 mg/L. Three days after immunosuppressive treatment started, each mouse received 30,000 PI^− cryopreserved oocysts in PBS suspension by oral gavage. […] Mice negative for signs of infection were monitored until 11 DPI. Intensity of fecal shedding was measured daily by inspection of the acid-fast stained fecal smear slides, prepared from a single fecal pellet of approximately equal size, for presence of oocysts in 30 fields (1000×).
The animal experiments which produced negative cryopreservation outcome were performed as described above with exception of few procedural details. A summary table describing the different cryopreservation methods evaluated and the corresponding outcome can be found in Table 1. […]

[2] = system: C. parvum oocysts; assay: Oocyst viability by propidium iodide (PI) exclusion, flow cytometry; format: cell-based, Cryptosporidium parvum; details: for viability (PI exclusion): pre-freeze, 50% DMSO, 20% bleach condition
Protocol: To increase the intracellular concentration of CPA, oocysts were bleached with various concentrations of bleach-5% or 20% and then incubated with CPA cocktails consisting of trehalose (Sigma) and DMSO (Sigma) at different concentrations. Briefly, bleached oocysts were first dehydrated in 1.6 M or 1 M trehalose solution for 10 min and then incubated for another 5-15 min with DMSO achieving its final concentration of 30% or 50% (ambient conditions were used throughout). The DMSO/trehalose cocktail was then diluted by incubation with excess PBS (at ratio 1:100) for 30 min at room temperature and removed by centrifugation (18,000×g, 2 min). Cytotoxicity attributable to the CPA cocktail was measured by inclusion of PI (Sigma) at 10 μg/mL using flow cytometry (ACCURI® C6, BD Life Sciences) and was normalized to its control in PBS for each condition.
In an effort to maximize the concentration of intracellular and extracellular CPA without compromising oocyst viability, oocysts were gradually exposed to higher concentrations of DMSO by two-step addition. Here, 6-week-old bleached oocysts (5% or 20%) were first dehydrated in 1.6 M trehalose for 10 min. DMSO was added to achieve 0.8 M trehalose/30% DMSO solution and incubated for 5 min. The second addition of DMSO led to a final concentration of 0.5 M trehalose/50% DMSO and was incubated for 1 min. CPA cocktail was then diluted as described above. Cytotoxicity attributable to CPA cocktail was measured by inclusion of PI and was normalized to the untreated oocyst control in PBS.
(§1) Bleached (20%) C. parvum oocysts at 1-2, 6 and 12 weeks of age were cryopreserved as described above using a two-step DMSO addition protocol, such that final concentration of 0.5 M trehalose/50% DMSO was achieved. […] Pre-freeze and post-freeze oocyst viability was measured by PI exclusion at 10 μg/mL using flow cytometry and by an in vitro infectivity assay. […]
For evaluation of cryopreservation in insemination straws and cryovials, pre-freeze and post-freeze viability was measured only by PI exclusion as described above.

[3] = system: C. parvum oocysts; assay: In vitro infectivity of oocysts in MDBK cells; format: cell-based, Cryptosporidium parvum
Protocol: All CPA cocktails described in FIG. 2A were further tested for infectivity in the in vitro model of epithelial cell infection using MDBK cells. Twenty thousand cells were seeded into each well of a 96-well culturing plate (Falcon) and maintained for two days to reach confluence (defined at 4×10^4/well). Oocysts were prepared for infection by bleaching and incubation with CPA cocktail as described above. After removal of diluted CPA in excess PBS, the oocyst pellet was resuspended in 50 μL of 0.75% sodium taurocholate (Sigma) and incubated at 37° C. for 15 min to prompt excystation. Pre-excysted oocysts were then added onto confluent cell monolayers at MOI 1:3. After 24-h co-incubation of parasite with cell monolayer, cultures were washed with PBS to remove extracellular stages of parasite, permeabilized with 100% methanol for 10 min at room temperature and then washed again with PBS. After fixation, cells were blocked with 10% FBS for 30 min and then incubated with fluorescein-labeled Vicia villosa lectin (Vector Laboratories) at concentration […] for 30 min to visualize intracellular stages of the parasite. After the final wash with PBS, monolayers were inspected with a Nikon ECLIPSE® Ti-E microscope (Nikon Instruments Inc.). Four images were taken of each well at 200× magnification using a FITC filter at 100 ms exposure. The number of fluorescing infection foci was then counted by ImageJ 1.48v particle analyzer using the following settings: triangle threshold 15-255, size exclusion at 10-1,000 pixel^2 and circularity at 0.1-1.0. Results depicted in FIG. 2B are expressed as percent infectivity of the control oocysts, which were treated with PBS in place of CPA.
as §1

[4] = 30% DMSO 5 min then 50% DMSO 1 min, compared with one-step at same overall concentration

C[S+](C)[O-] [DMSO, dimethyl sulfoxide]
Infectivity in animals after thawing ([1]; Rectangular capillary, 2 weeks oocysts, trehalose 1.6M/0.8M, One-step 50% DMSO, 5 min, dose 10,000): No | Infectivity in animals after thawing ([1]; Vitrification cassette, 2-12 weeks oocysts, trehalose 1.6M/0.5M, Two-step 30% DMSO/50% DMSO, 5 min/1 min, dose 30,000): Yes | Infectivity in animals after thawing ([1]; Vitrification cassette, 6 weeks oocysts, trehalose 1.6M/0.8M, One-step 50% DMSO, 5 min, dose 10,000): No | pre-freeze viability, two-step vs one-step DMSO addition [2, 4]: significantly increased | viability (PI exclusion) ([2]; 5 min incubation): 59.4±2.3% | viability (PI exclusion) ([2]; after 15 min or longer): 17.5±5.0% | pre-freeze infectivity in vitro, two-step vs one-step DMSO addition [3, 4]: significantly increased | in vitro infectivity ([3]; pre-freeze, 50% DMSO, 5 min incubation, 20% bleach condition, percent of control oocysts in PBS): 38.7±17.0% | infectivity (in vitro) ([3]; pre-freeze, 50% DMSO, after 15 min or longer, 20% bleach condition): 6.4±1.9%
